In publication PMC12114619, “Nifuroxazide and 4-Hydroxybenzhydrazone Derivatives as New Antiparasitic (Trypanosoma cruzi and Leishmania mexicana) and Anti-Mycobacterium tuberculosis Agents” (Pharmaceutics, 2025):
In brackets after ≈: the same amount, converted by molar mass.

Columns and labels:
[1] = test system: amastigotes of the L. major IR-173 strain; parameters: method as in PMID 35732232; conditions: read-out: IC50 against amastigotes of L. major IR-173; cited from earlier work
[2] = test system: L. mexicana MNYC/BZ/62/M379 promastigotes; test: Leishmanicidal activity, L. mexicana promastigotes, M379 strain (MTT); type: cell-based, Leishmania mexicana; conditions: 48 h
Description: (§1) For leishmanicidal assays, the reference strain (MNYC/BZ/62/M379) and the isolate (MHOM/MX/2017/UABJO17FCQEPS) of L. mexicana were used. Promastigotes were cultured in RPMI 1640 medium supplemented with 10% FBS, 100 U/mL penicillin-100 […] streptomycin, and glutamine (2 mM). 100 µL parasites (5 × 10^5/mL) were added in a 96-well plate, and 100 µL of appropriate concentrations (0.78 to 200 µM) of each sample dissolved in DMSO and incubated for 48 h at 26 °C. Wells containing promastigotes with DMSO 0.2% were used as a negative control, and the reference drug glucantime was included as the positive control. The 3-(4,5-Dimethylthiazol-2-yl)-2,5-diphenyltetrazolium bromide (MTT) was used to measure metabolic activity. The IC50 values were calculated with the probit statistical tool. All samples were evaluated in triplicate in three independent experiments.

[3] = test system: L. mexicana MHOM/MX/2017/UABJO17FCQEPS promastigotes; test: Leishmanicidal activity, L. mexicana promastigotes, FCQEPS isolate (MTT); type: cell-based, Leishmania mexicana; conditions: FCQEPS strain, 48 h
Description: as §1

[4] = test system: J774.2 mouse macrophage cells; test: Cytotoxicity on macrophages (MTT); type: cell-based
Description: (§2) Cytotoxicity was assessed on J774.2 mouse macrophage cells (ATCC® TIB-67, ATCC, Manassas, VA, USA). Cells were cultured in RPMI medium supplemented with 10% SFB, 100 U µg/mL penicillin-100 mg/mL streptomycin, and glutamine (2 mM) at 37 °C and in a 5% CO2 atmosphere. A known concentration of cells (1 × 10^6/mL) was incubated with the compounds at different concentrations (0.78 to 200 µM) for 48 h at 37 °C in a CO2 atmosphere (5%). Wells containing cells treated with 0.2% DMSO were used as a negative control. MTT was employed to evaluate the metabolic activity. Next, the cell viability was calculated (%), and the cytotoxic concentration (CC50) was determined with probit analysis. All samples were evaluated in triplicate in three independent experiments.

[5] = test system: intracellular amastigotes of the L. donovani 9515 strain; parameters: method as in PMID 35732232; conditions: read-out: IC50 against intracellular amastigotes of L. donovani 9515; cited from earlier work
[6] = test system: T. cruzi NINOA (MHOM/MX/1994/NINOA) strain epimastigotes; test: Trypanocidal activity, T. cruzi epimastigotes, NINOA strain (resazurin); type: cell-based, Trypanosoma cruzi; conditions: 48 h
[7] = test system: T. cruzi strain A1 epimastigotes; test: Trypanocidal activity, T. cruzi epimastigotes, A1 strain (resazurin); type: cell-based, Trypanosoma cruzi; conditions: Trypanosoma cruzi, 48 h
[8] = test system: M. tuberculosis H37Rv (ATCC 27294); test: Anti-Mycobacterium activity, microplate Alamar Blue Assay (MABA); type: cell-based, Mycobacterium tuberculosis; conditions: Mycobacterium tuberculosis, H37Rv strain, minimum concentration achieving 90% inhibition
Description: The reference strain H37Rv (ATCC 27294) of M. tuberculosis was utilized to assess anti-M. tuberculosis activity using the microplate Alamar Blue Assay (MABA), as previously reported. Samples underwent evaluation in triplicate independent experiments. Isoniazid, rifampicin, moxifloxacin, and linezolid were included as reference drugs, and the minimum drug concentration that achieved 90% inhibition was recorded as the minimum inhibitory concentration (MIC).

[9] = Cytotoxicity on macrophages (MTT); type: cell-based, mouse; conditions: mouse, Cytotoxicity (CC50) Macrophages J774.2
Description: as §2

In the case of `CC(C)(C)c1ccc(COc2ccc(C(=O)N/N=C/c3ccc([N+](=O)[O-])o3)cc2)cc1` [Compound 2d], the IC50 [1] is given as 0.19 µM.

Work on `CNC[C@H](O)[C@@H](O)[C@H](O)[C@H](O)CO.[O]=[Sb](=[O])[OH]` [Glucantime, reference compound] yielded an IC50 [2] of 134 ± 3.1 µM, an IC50 ([2]; listed as glucantime) of 134 µM and an IC50 [3] of 125 ± 1.6 µM. The IC50 ([3]; listed as glucantime) was over 120 µM and the CC50 ([4]; J774.2 macrophages, 48 h, MTT) was over 200 µM.

For `O=C(N/N=C/c1ccc([N+](=O)[O-])o1)c1ccc(OS(=O)(=O)c2cccnc2)cc1` [Compound 1l], the IC50 [5] is given as 3.26 µM and the IC50 [1] is given as 1.26 µM.

`O=C(N/N=C/c1ccc([N+](=O)[O-])cc1)c1ccc(O)cc1` [Nfz-18] showed an IC50 [6] of 44.6 ± 6.3 µM, an IC50 ([6]; Trypanosoma cruzi) of 44.5 µM and an IC50 [7] of over 100 µM. It also gave an IC50 [2] of over 200 µM, an IC50 ([2]; Leishmania mexicana) of over 100 µM and an IC50 ([3]; Leishmania mexicana) of 57.8 ± 2.6 µM. For the same compound, the MIC [8] was 186 µg/mL (≈ 653 µM), the CC50 at 48 h [9] was 2.45 ± 2.9 µM and the “Cytotoxicity (CC50) Macrophages J774.2” value [4] was “most toxic”.
